# Measured values as given in US8383629B2, “Inhibitors of 11β-hydroxysteroid dehydrogenase type 1” (Vitae Pharmaceuticals, Inc., priority 2008, dated 2013).
# pIC50: −log10 of the molar value.
# Target: T1, human 11β-HSD1 (Homo sapiens, UniProt P28845)
# T1 construct: expressed in transfected cells; host or cells: CHO cells (microsomes)
# Test: Inhibition of microsomal preparation of 11β-HSD1 (SPA, Biological Test Example 1)
# Format: biochemical
# Conditions: for inhibition at 0.111 µM: 111 nM; for pIC50: microsomes from CHO cells overexpressing human 11β-HSD1, read-out: IC50 Range
# Description: The inhibition of microsomal preparation of 11β-HSD1 by compounds of the invention was measured essentially as previously described (K. Solly, S. S. Mundt, H. J. Zokian, G. J. Ding, A. Hermanowski-Vosatka, B. Strulovici, and W. Zheng, High-Throughput Screening of 11-Beta-Hydroxysteroid Dehydrogenase Type 1 in Scintillation Proximity Assay Format. Assay Drug Dev Technol 3 (2005) 377-384). All reactions were carried out at rt in 96 well clear flexible PET Microbeta plates (PerkinElmer). The assay begins by dispensing 49 μl of substrate solution (50 mM HEPES, pH 7.4, 100 mM KCl, 5 mM NaCl, 2 mM MgCl2, 2 mM NADPH and 160 nM [^3H]cortisone (1 Ci/mmol)) and mixing in 1 μL of the test compounds in DMSO previously diluted in half-log increments (8 points) starting at 0.1 mM. After a 10 minute pre-incubation, 50 μL of enzyme solution containing microsomes isolated from CHO cells overexpressing human 11β-HSD1 (10-20 μg/ml of total protein) was added, and the plates were incubated for 90 minutes at rt. The reaction was stopped by adding 50 μl of the SPA beads suspension containing 10 μM 18β-glycyrrhetinic acid, 5 mg/ml protein A coated YSi SPA beads (GE Healthcare) and 3.3 μg/ml of anti-cortisol antibody (East Coast Biologics) in Superblock buffer (Bio-Rad). The plates were shaken for 120 minutes at rt, and the SPA signal corresponding to [^3H]cortisol was measured on a Microbeta plate reader.
# T1 sequence (P28845 whole entry): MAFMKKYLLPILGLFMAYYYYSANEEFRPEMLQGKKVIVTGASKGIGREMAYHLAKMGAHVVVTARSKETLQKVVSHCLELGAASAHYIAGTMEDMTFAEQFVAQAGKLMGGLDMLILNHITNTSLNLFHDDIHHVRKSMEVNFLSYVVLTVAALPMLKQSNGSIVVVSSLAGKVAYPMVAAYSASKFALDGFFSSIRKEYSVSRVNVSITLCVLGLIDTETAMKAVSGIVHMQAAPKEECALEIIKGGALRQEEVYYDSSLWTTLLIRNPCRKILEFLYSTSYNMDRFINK
inhibition at 0.111 µM [%],pIC50,"Average % inhibition at 100 nM (100 nM, 0.1 µM) [%]",inhibition at 0.1 µM (100 nM) [%],Structure (SMILES)
31.5,6.00 to 7.00,–,–,"CN1C(=O)C2(CCN(C(=O)/C=C/c3ccccc3C(F)(F)F)CC2)c2cc(C(=O)O)ccc21 [EXAMPLE 33, (E)-1-methyl-2-oxo-1′-(3-(2-(trifluoromethyl)phenyl)acryloyl)spiro[indoline-3,4′-piperidine]-5-carboxylic acid]"
79,> 7.00,–,–,"CN1C(=O)c2cccc(Cl)c2C12CCN(C(=O)/C=C/c1c(Cl)cccc1Cl)CC2 [EXAMPLE 26, (E)-7-chloro-1′-(3-(2,6-dichlorophenyl)acryloyl)-2-methylspiro[isoindoline-1,4′-piperidin]-3-one]"
71.2,> 7.00,–,–,"CCN1C(=O)C2(CCN(C(=O)/C=C/c3ccccc3C(F)(F)F)CC2)c2cc(C(=O)OC)ccc21 [EXAMPLE 40, (E)-methyl 1-ethyl-2-oxo-1′-(3-(2-(trifluoromethyl)phenyl)acryloyl)spiro[indoline-3,4′-piperidine]-5-carboxylate]"
–,> 7.00,100.3,–,"O=C(O)CC1CC2(CCN(C(=O)/C=C/c3ccccc3C(F)(F)F)CC2)c2c(Br)cccc21 (single isomer, unassigned; isomer 2) [EXAMPLE 2.2, (E)-2-(7-bromo-1′-(3-(2-(trifluoromethyl)phenyl)acryloyl)-2,3-dihydrospiro[indene-1,4′-piperidine]-3-yl)acetic acid isomer 2]"
90.9,> 7.00,–,85.6,"NC(=O)CC1CC2(CCN(C(=O)/C=C/c3ccccc3C(F)(F)F)CC2)c2cc(F)ccc21 (racemic) [EXAMPLE 14, (±)-(E)-2-(6-fluoro-1′-(3-(2-(trifluoromethyl)phenyl)acryloyl)-2,3-dihydrospiro[indene-1,4′-piperidine]-3-yl)acetamide]"
21.3,6.00 to 7.00,–,–,"CNC(=O)c1ccc2c(c1)C1(CCN(C(=O)/C=C/c3ccccc3C(F)(F)F)CC1)C(=O)N2C [EXAMPLE 38, (E)-N,1-dimethyl-2-oxo-1′-(3-(2-(trifluoromethyl)phenyl)acryloyl)spiro[indoline-3,4′-piperidine]-5-carboxamide]"
96.7,> 7.00,–,93.3,"CN1C(=O)c2cccc(Cl)c2C12CCN(C(=O)CCc1ccccc1C(F)(F)F)CC2 [EXAMPLE 61, 7-chloro-2-methyl-1′-(3-(2-(trifluoromethyl)phenyl)propanoyl)spiro[isoindoline-1,4′-piperidin]-3-one]"
0.6,6.00 to 7.00,–,–,"CN1C(=O)C2(CCN(C(=O)/C=C/c3ccccc3C(F)(F)F)CC2)c2cc(C(=O)NCCO)ccc21 [EXAMPLE 36, (E)-N-(2-hydroxyethyl)-1-methyl-2-oxo-1′-(3-(2-(trifluoromethyl)phenyl)acryloyl)spiro[indoline-3,4′-piperidine]-5-carboxamide]"
48.2,> 7.00,–,–,"CC(C)Oc1ccccc1CNC(=O)N1CCC2(CC1)CC(CC(=O)O)c1cccc(Br)c12 (stereo not shown) [EXAMPLE 98, 2-(7-bromo-1′-(2-isopropoxybenzylcarbamoyl)-2,3-dihydrospiro[indene-1,4′-piperidine]-3-yl)acetic acid]"
–,> 7.00,–,96.6,"O=C(O)CC1CC2(CCN(C(=O)/C=C/c3ccccc3C(F)(F)F)CC2)c2c(Br)cccc21 (single isomer, unassigned; isomer 1) [EXAMPLE 2.1, (±)-(E)-2-(7-bromo-1′-(3-(2-(trifluoromethyl)phenyl)acryloyl)-2,3-dihydrospiro[indene-1,4′-piperidine]-3-yl)acetic acid isomer 1]"
66.2,> 7.00,–,–,"Cc1ccccc1CNC(=O)N1CCC2(CC1)CC(CC(=O)N1CCN(C(=O)OC(C)(C)C)CC1)c1cccc(Br)c12 (stereo not shown) [EXAMPLE 88, tert-butyl 4-(2-(7-bromo-1′-(2-methylbenzylcarbamoyl)-2,3-dihydrospiro[indene-1,4′-piperidine]-3-yl)acetyl)piperazine-1-carboxylate]"
83.3,> 7.00,–,–,"O=C(O)CC1CC2(CCN(C(=O)/C=C/c3cc(F)ccc3C(F)(F)F)CC2)c2c(Cl)cccc21 (racemic) [EXAMPLE 5, (±)-(E)-2-(7-chloro-1′-(3-(5-fluoro-2-(trifluoromethyl)phenyl)acryloyl)-2,3-dihydrospiro[indene-1,4′-piperidine]-3-yl)acetic acid]"
93.9,> 7.00,–,–,"O=C1NC2(CCN(C(=O)CCc3ccccc3C(F)(F)F)CC2)c2c(Br)cccc21 [EXAMPLE 71, 7-bromo-1′-(3-(2-(trifluoromethyl)phenyl)propanoyl)spiro[isoindoline-1,4′-piperidin]-3-one]"
85.5,> 7.00,–,–,"O=C(O)CC1CC2(CCN(C(=O)/C=C/c3ccccc3Cl)CC2)c2c(Cl)cccc21 (racemic) [EXAMPLE 8, (±)-(E)-2-(7-chloro-1′-(3-(2-chlorophenyl)acryloyl)-2,3-dihydrospiro[indene-1,4′-piperidine]-3-yl)acetic acid]"
69.9,> 7.00,–,–,"COc1ccc2c(c1)CCNC21CCN(C(=O)Cc2ccccc2C(F)(F)F)CC1 [EXAMPLE 44, 1-(6-methoxy-3,4-dihydro-2H-spiro[isoquinoline-1,4′-piperidine]-1′-yl)-2-(2-(trifluoromethyl)phenyl)ethanone]"
–,> 7.00,–,90.6,"CC1(C)NC(=O)C2(CCN(C(=O)/C=C/c3ccccc3C(F)(F)F)CC2)c2ccccc21 [EXAMPLE 43, (E)-1,1-dimethyl-1′-(3-(2-(trifluoromethyl)phenyl)acryloyl)-1H-spiro[isoquinoline-4,4′-piperidin]-3(2H)-one]"
64.1,> 7.00,–,–,"Cc1cccc(Cl)c1CNC(=O)N1CCC2(CC1)CC(CC(=O)O)c1cccc(Br)c12 (stereo not shown) [EXAMPLE 91, 2-(7-bromo-1′-(2-chloro-6-methylbenzylcarbamoyl)-2,3-dihydrospiro[indene-1,4′-piperidine]-3-yl)acetic acid]"
94.8,> 7.00,–,94.6,"NC(=O)CC1CC2(CCN(C(=O)/C=C/c3ccccc3C(F)(F)F)CC2)c2c(Br)cccc21 (racemic) [EXAMPLE 13, (±)-(E)-2-(7-bromo-1′-(3-(2-(trifluoromethyl)phenyl)acryloyl)-2,3-dihydrospiro[indene-1,4′-piperidine]-3-yl)acetamide]"
22.5,6.00 to 7.00,–,–,"COc1ccc2c(c1)CCNC21CCN(C(=O)CCc2ccccc2C)CC1 [EXAMPLE 63, 1-(6-methoxy-3,4-dihydro-2H-spiro[isoquinoline-1,4′-piperidine]-1′-yl)-3-o-tolylpropane-1-one]"
41.4,6.00 to 7.00,–,–,"CN1C(=O)C2(CCN(C(=O)/C=C/c3ccccc3C(F)(F)F)CC2)c2cc(C(N)=O)ccc21 [EXAMPLE 35, (E)-1-methyl-2-oxo-1′-(3-(2-(trifluoromethyl)phenyl)acryloyl)spiro[indoline-3,4′-piperidine]-5-carboxamide]"
46.8,6.00 to 7.00,–,–,"CN1C(=O)c2cccc(Cl)c2C12CCN(C(=O)NCc1ccccc1C(F)(F)F)CC2 [EXAMPLE 100, 7-chloro-2-methyl-3-oxo-N-(2-(trifluoromethyl)benzyl)spiro[isoindoline-1,4′-piperidine]-1′-carboxamide]"
100,> 7.00,–,–,"O=C(CCc1ccccc1C(F)(F)F)N1CCC2(CC1)CC(O)c1cccc(Br)c12 (stereo not shown) [EXAMPLE 64, 1-(7-bromo-3-hydroxy-2,3-dihydrospiro[indene-1,4′-piperidine]-1′-yl)-3-(2-(trifluoromethyl)phenyl)propan-1-one]"
66.6,> 7.00,–,–,"O=C(CCc1ccccc1C(F)(F)F)N1CCC2(CC1)CNCc1ccccc12 [EXAMPLE 59, 1-(2,3-dihydro-1H-spiro[isoquinoline-4,4′-piperidine]-1′-yl)-3-(2-(trifluoromethyl)phenyl)propan-1-one]"
87.3,> 7.00,–,–,"CNCCN(C)C(=O)CC1CC2(CCN(C(=O)/C=C/c3ccccc3C(F)(F)F)CC2)c2c(Cl)cccc21 (racemic) [EXAMPLE 7, (±)-(E)-2-(7-chloro-1′-(3-(2-(trifluoromethyl)phenyl)acryloyl)-2,3-dihydrospiro[indene-1,4′-piperidine]-3-yl)-N-methyl-N-(2-(methylamino)ethyl)acetamide]"
18.5,6.00 to 7.00,–,–,"CCOC(=O)CC1CC2(CCN(C(=O)NCc3ccccc3S(C)(=O)=O)CC2)c2c(Br)cccc21 (stereo not shown) [EXAMPLE 93, Ethyl 2-(7-bromo-1′-(2-(methylsulfonyl)benzylcarbamoyl)-2,3-dihydrospiro[indene-1,4′-piperidine]-3-yl)acetate]"
79.4,> 7.00,–,–,"CCOC(=O)CC1CC2(CCN(C(=O)N(C)Cc3ccccc3F)CC2)c2c(Br)cccc21 (stereo not shown) [EXAMPLE 103, Ethyl 2-(7-bromo-1′-((2-fluorobenzyl)(methyl)carbamoyl)-2,3-dihydrospiro[indene-1,4′-piperidine]-3-yl)acetate]"
